Laboratory results: US20240189258A1, “CANCER CELL GROWTH INHIBITING COMPOSITION AND PROCESSED FOOD” (HAGIHARA FARM PRODUCTION INSTITUTE CO., LTD., priority 2021, published 2024)

Experiments:
Jurkat cells = test: Growth inhibiting activity for human leukemia T cell line Jurkat cells (Cell Count Reagent SF, cell viability); format: cell-based; settings: 72 hours culture, cell viability by absorbance A450-A630
Procedure: <2. Evaluation of growth inhibiting activity of compounds for human leukemia T cell line Jurkat cells>
The cancer cell growth-inhibiting activity of each sample described above was examined using Jurkat cells, which are from a human leukemia T cell line.
In each well of a 96-well plate, 50 μL of a Jurkat cell suspension prepared at 1×10^5 cells/mL was seeded. A DMSO solution of the evaluation sample was diluted 500 times with the culture medium. Immediately after that, 50 μL of the diluted sample solution was added to the cells to start a cell treatment. After the samples were stirred for 30 seconds using a microplate reader, the cells were cultured in an incubator. After 72 hours, 10 μL of Cell Count Reagent SF was added to each well. After a color reaction was performed in the incubator for 2 to 3 hours, the absorbance at 450 nm and 630 nm was measured using a microplate reader. Cell viability was determined using the following formula (F1).
Cell viability (%)=[(As−Ab)/(Ac−Ab)]×100 (F1)
Note that As, Ab, and Ac are as follows. • As: absorbance of evaluation well • Ab: absorbance of negative control well • Ac: absorbance of control well
All the “absorbance” values in the above-described formula were calculated by subtracting the absorbance at 630 nm (referred to as A630) from the absorbance at 450 nm (referred to as A450) , that is, “A450-A630”. Further, IC50 was calculated by linear approximation on a logarithmic graph using two concentrations that most tightly enclose the 50% cell viability point.

## C/C(=C\CN)CCC[C@H](C)CCC[C@H](C)CCCC(C)C (racemic) [rac-PT10, (7R,11R,E)-1-amino-3,7,11,15-tetramethyl-2-hexadecene, reference compound]
Jurkat cells; Homo sapiens
  IC50: 3.8 µM

## C/C(=C\CN(C)C)CCC[C@H](C)CCC[C@H](C)CCCC(C)C (racemic) [PT21, (7RS,11RS,E)-1-N,N-dimethylamino-3,7,11,15-tetramethyl-2-hexadecene]
Jurkat cells; Homo sapiens
  IC50: 2.8 µM

## C/C(=C\CNC(C)(C)C)CCC[C@H](C)CCC[C@H](C)CCCC(C)C (racemic) [PT23, (7RS,11RS,E)-1-t-butylamino-3,7,11,15-tetramethyl-2-hexadecene]
Jurkat cells; Homo sapiens
  IC50: 3.1 µM

## C/C(=C\C[N+](C)(C)C)CCC[C@H](C)CCC[C@H](C)CCCC(C)C.[Br-] (racemic) [PT26, (7RS,11RS,E)-N,N,N-trimethyl-3,7,11,15-tetramethyl-2-hexadecenaminium bromide]
Jurkat cells; Homo sapiens
  IC50: 1.41 µM
other
  melting point: 199 to 201 °C

## C/C(=C\Cn1c(N)ccnc1=O)CCC[C@H](C)CCC[C@H](C)CCCC(C)C (racemic) [PT28, 6-amino-1-((7R,11R,E)-3,7,11,15-tetramethyl-2-hexadecenyl)pyrimidin-2(1H)-one]
Jurkat cells; Homo sapiens
  IC50: 3.2 µM
other
  melting point: 101 to 102 °C

## C/C(=C\CNC(C)C)CCC[C@H](C)CCC[C@H](C)CCCC(C)C (racemic) [PT22, (7RS,11RS,E)-1-isopropylamino-3,7,11,15-tetramethyl-2-hexadecene]
Jurkat cells; Homo sapiens
  IC50: 2.6 µM

## CC[N+](CC)(CC)C/C=C(\C)CCC[C@H](C)CCC[C@H](C)CCCC(C)C.[Br-] (racemic) [PT27, (7RS,11RS,E)-N,N,N-triethyl-3,7,11,15-tetramethyl-2-hexadecenaminium bromide]
Jurkat cells; Homo sapiens
  IC50: 0.48 µM
other
  melting point: 132 to 135 °C

## C/C(=C\CO)CCC[C@H](C)CCC[C@H](C)CCCC(C)C (racemic) [rac-PTO, phytol, reference compound]
Jurkat cells
  IC50: 29.8 µM
